Measured values from patent publication US20250145665A1, “MACROCYCLIC PEPTIDES USEFUL AS MODULATORS OF TNF ALPHA” (Bristol-Myers Squibb Company, priority 2023, published 2025).
Positions of bridges follow the written chain, without caps; N, C: chain ends. Non-standard residues stand in square brackets, D forms with d. Residues, ends and D or L forms follow the SMILES beside them. Bip(4'-COOH) = N[C@@H](Cc1ccc(-c2ccc(C(=O)O)cc2)cc1)C(=O)O; Phe(4-CF3) = N[C@@H](Cc1ccc(C(F)(F)F)cc1)C(=O)O; Ala(morpholin-4-yl) = N[C@@H](CN1CCOCC1)C(=O)O; Phe(3-CONH2) = NC(=O)c1cccc(C[C@H](N)C(=O)O)c1; Phe(4-CONH2) = NC(=O)c1ccc(C[C@H](N)C(=O)O)cc1; Phe(4-CH2NH2) = NCc1ccc(C[C@H](N)C(=O)O)cc1; Bip = N[C@@H](Cc1ccc(-c2ccccc2)cc1)C(=O)O; Phe(4-Me) = Cc1ccc(C[C@H](N)C(=O)O)cc1; Bta = N[C@@H](Cc1csc2ccccc12)C(=O)O; h4Pal = N[C@@H](CCc1ccncc1)C(=O)O; hArg = N=C(N)NCCCC[C@H](N)C(=O)O; hPhe = N[C@@H](CCc1ccccc1)C(=O)O; Tic = O=C(O)[C@@H]1Cc2ccccc2CN1; Sar = CNCC(=O)O

Biological target: TNFα (Homo sapiens, UniProt P01375)
Sequence (P01375 77-233 limits assumed): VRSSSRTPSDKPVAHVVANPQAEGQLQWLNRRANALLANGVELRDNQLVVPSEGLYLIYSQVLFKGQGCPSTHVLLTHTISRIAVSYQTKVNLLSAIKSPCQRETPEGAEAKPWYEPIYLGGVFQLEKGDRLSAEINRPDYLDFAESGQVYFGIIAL
Test: TNF-Induced HEK-Blue Assay
Format: cell-based
Details: HEK-Blue-CD40L cells, NF-kB-driven secreted alkaline phosphatase reporter; TNFα 0.5 ng/ml; 18 h; read-out: TNF induced HEK-Blue assay IC50 value

SMILES | IC50
CC(C)C[C@@H]1NC(=O)[C@H](Cc2ccc(O)cc2)NC(=O)[C@H](C(C)C)NC(=O)[C@@H]2Cc3ccccc3CN2C(=O)[C@H](C(C)C)NC(=O)[C@@H](CCCNC(=N)N)NC(=O)[C@H](CC(=O)O)NC(=O)[C@H](Cc2ccc(O)cc2)NC(=O)CN(C)C(=O)[C@H](Cc2ccc(-c3ccccc3)cc2)NC(=O)[C@H](Cc2ccc(-c3ccc(C(=O)O)cc3)cc2)NC(=O)[C@H](CN2CCOCC2)NC(=O)CSC[C@@H](C(=O)NCC(N)=O)NC1=O [Example 148] ({CH2CO}-[Ala(morpholin-4-yl)][Bip(4'-COOH)][Bip][Sar]YD[dR]V[Tic]VYLCG-NH2; thioether N-13) | < 50 nM
CC(C)C[C@@H]1NC(=O)[C@H](Cc2ccc(O)cc2)NC(=O)[C@H](CC(C)C)NC(=O)[C@@H]2CCCN2C(=O)[C@H](C(C)C)NC(=O)[C@@H](CCCNC(=N)N)NC(=O)[C@H](CC(=O)O)NC(=O)[C@H](Cc2ccc(O)cc2)NC(=O)CN(C)C(=O)[C@H](Cc2ccc(-c3ccccc3)cc2)NC(=O)[C@H](Cc2ccc(-c3ccccc3)cc2)NC(=O)[C@H](CN2CCOCC2)NC(=O)CSC[C@@H](C(=O)NCC(N)=O)NC1=O [Example 149] ({CH2CO}-[Ala(morpholin-4-yl)][Bip][Bip][Sar]YD[dR]VPLYLCG-NH2; thioether N-13) | 50 to 200 nM
CC(C)C[C@@H]1NC(=O)[C@H](Cc2ccc(C(N)=O)cc2)NC(=O)[C@H](C(C)C)NC(=O)[C@@H]2CCCN2C(=O)[C@H](C(C)C)NC(=O)[C@@H](CCCNC(=N)N)NC(=O)[C@H](CC(=O)O)NC(=O)[C@H](Cc2ccc(O)cc2)NC(=O)CN(C)C(=O)[C@H](Cc2ccc(-c3ccccc3)cc2)NC(=O)[C@H](Cc2ccc(-c3ccccc3)cc2)NC(=O)[C@H](CN2CCOCC2)NC(=O)CSC[C@@H](C(=O)NCC(N)=O)NC1=O [Example 151] ({CH2CO}-[Ala(morpholin-4-yl)][Bip][Bip][Sar]YD[dR]VPV[Phe(4-CONH2)]LCG-NH2; thioether N-13) | 50 to 200 nM
CC(C)C[C@@H]1NC(=O)[C@H](CCc2ccccc2)NC(=O)[C@H](C(C)C)NC(=O)[C@@H]2CCCN2C(=O)[C@H](C(C)C)NC(=O)[C@@H](CCCNC(=N)N)NC(=O)[C@H](CC(=O)O)NC(=O)[C@H](Cc2ccc(O)cc2)NC(=O)CN(C)C(=O)[C@H](Cc2ccc(-c3ccccc3)cc2)NC(=O)[C@H](Cc2ccc(-c3ccccc3)cc2)NC(=O)[C@H](CN2CCOCC2)NC(=O)CSC[C@@H](C(=O)NCC(N)=O)NC1=O [Example 154] ({CH2CO}-[Ala(morpholin-4-yl)][Bip][Bip][Sar]YD[dR]VPV[hPhe]LCG-NH2; thioether N-13) | 50 to 200 nM
CC(C)C[C@@H]1NC(=O)[C@H](CCc2ccncc2)NC(=O)[C@H](C(C)C)NC(=O)[C@@H]2CCCN2C(=O)[C@H](C(C)C)NC(=O)[C@@H](CCCNC(=N)N)NC(=O)[C@H](CC(=O)O)NC(=O)[C@H](Cc2ccc(O)cc2)NC(=O)CN(C)C(=O)[C@H](Cc2ccc(-c3ccccc3)cc2)NC(=O)[C@H](Cc2ccc(-c3ccccc3)cc2)NC(=O)[C@H](CN2CCOCC2)NC(=O)CSC[C@@H](C(=O)NCC(N)=O)NC1=O [Example 155] ({CH2CO}-[Ala(morpholin-4-yl)][Bip][Bip][Sar]YD[dR]VPV[h4Pal]LCG-NH2; thioether N-13) | < 50 nM
CC(C)C[C@@H]1NC(=O)[C@H](Cc2cccc(C(N)=O)c2)NC(=O)[C@H](C(C)C)NC(=O)[C@@H]2CCCN2C(=O)[C@H](C(C)C)NC(=O)[C@@H](CCCNC(=N)N)NC(=O)[C@H](CC(=O)O)NC(=O)[C@H](Cc2ccc(O)cc2)NC(=O)CN(C)C(=O)[C@H](Cc2ccc(-c3ccccc3)cc2)NC(=O)[C@H](Cc2ccc(-c3ccccc3)cc2)NC(=O)[C@H](CN2CCOCC2)NC(=O)CSC[C@@H](C(=O)NCC(N)=O)NC1=O [Example 156] ({CH2CO}-[Ala(morpholin-4-yl)][Bip][Bip][Sar]YD[dR]VPV[Phe(3-CONH2)]LCG-NH2; thioether N-13) | 50 to 200 nM
CC(C)C[C@@H]1NC(=O)[C@H](Cc2csc3ccccc23)NC(=O)[C@H](C(C)C)NC(=O)[C@@H]2CCCN2C(=O)[C@H](C(C)C)NC(=O)[C@@H](CCCNC(=N)N)NC(=O)[C@H](CC(=O)O)NC(=O)[C@H](Cc2ccc(O)cc2)NC(=O)CN(C)C(=O)[C@H](Cc2ccc(-c3ccccc3)cc2)NC(=O)[C@H](Cc2ccc(-c3ccccc3)cc2)NC(=O)[C@H](CN2CCOCC2)NC(=O)CSC[C@@H](C(=O)NCC(N)=O)NC1=O [Example 158] ({CH2CO}-[Ala(morpholin-4-yl)][Bip][Bip][Sar]YD[dR]VPV[Bta]LCG-NH2; thioether N-13) | 200 to 2000 nM
CC(C)C[C@@H]1NC(=O)[C@H](CCCCNC(=N)N)NC(=O)[C@H](C(C)C)NC(=O)[C@@H]2CCCN2C(=O)[C@H](C(C)C)NC(=O)[C@@H](CCCNC(=N)N)NC(=O)[C@H](CC(=O)O)NC(=O)[C@H](Cc2ccc(O)cc2)NC(=O)CN(C)C(=O)[C@H](Cc2ccc(-c3ccccc3)cc2)NC(=O)[C@H](Cc2ccc(-c3ccccc3)cc2)NC(=O)[C@H](CN2CCOCC2)NC(=O)CSC[C@@H](C(=O)NCC(N)=O)NC1=O [Example 159] ({CH2CO}-[Ala(morpholin-4-yl)][Bip][Bip][Sar]YD[dR]VPV[hArg]LCG-NH2; thioether N-13) | < 50 nM

Continued, values first:

IC50 | SMILES
50 to 200 nM | CC(C)C[C@@H]1NC(=O)[C@H](Cc2ccc(CN)cc2)NC(=O)[C@H](C(C)C)NC(=O)[C@@H]2CCCN2C(=O)[C@H](C(C)C)NC(=O)[C@@H](CCCNC(=N)N)NC(=O)[C@H](CC(=O)O)NC(=O)[C@H](Cc2ccc(O)cc2)NC(=O)CN(C)C(=O)[C@H](Cc2ccc(-c3ccccc3)cc2)NC(=O)[C@H](Cc2ccc(-c3ccccc3)cc2)NC(=O)[C@H](CN2CCOCC2)NC(=O)CSC[C@@H](C(=O)NCC(N)=O)NC1=O [Example 150] ({CH2CO}-[Ala(morpholin-4-yl)][Bip][Bip][Sar]YD[dR]VPV[Phe(4-CH2NH2)]LCG-NH2; thioether N-13)
50 to 200 nM | Cc1ccc(C[C@@H]2NC(=O)[C@H](C(C)C)NC(=O)[C@@H]3CCCN3C(=O)[C@H](C(C)C)NC(=O)[C@@H](CCCNC(=N)N)NC(=O)[C@H](CC(=O)O)NC(=O)[C@H](Cc3ccc(O)cc3)NC(=O)CN(C)C(=O)[C@H](Cc3ccc(-c4ccccc4)cc3)NC(=O)[C@H](Cc3ccc(-c4ccccc4)cc3)NC(=O)[C@H](CN3CCOCC3)NC(=O)CSC[C@@H](C(=O)NCC(N)=O)NC(=O)[C@H](CC(C)C)NC2=O)cc1 [Example 152] ({CH2CO}-[Ala(morpholin-4-yl)][Bip][Bip][Sar]YD[dR]VPV[Phe(4-Me)]LCG-NH2; thioether N-13)
200 to 2000 nM | CC(C)C[C@@H]1NC(=O)[C@H](Cc2ccc(C(F)(F)F)cc2)NC(=O)[C@H](C(C)C)NC(=O)[C@@H]2CCCN2C(=O)[C@H](C(C)C)NC(=O)[C@@H](CCCNC(=N)N)NC(=O)[C@H](CC(=O)O)NC(=O)[C@H](Cc2ccc(O)cc2)NC(=O)CN(C)C(=O)[C@H](Cc2ccc(-c3ccccc3)cc2)NC(=O)[C@H](Cc2ccc(-c3ccccc3)cc2)NC(=O)[C@H](CN2CCOCC2)NC(=O)CSC[C@@H](C(=O)NCC(N)=O)NC1=O [Example 157] ({CH2CO}-[Ala(morpholin-4-yl)][Bip][Bip][Sar]YD[dR]VPV[Phe(4-CF3)]LCG-NH2; thioether N-13)
